Results: PMC8869097, “Benzothiazole Derivatives as Multifunctional Antioxidant Agents for Skin Damage: Structure–Activity Relationship of a Scaffold Bearing a Five-Membered Ring System” (Antioxidants, 2022)

How the values were obtained:
[1] = Photostability of formulations after solar simulator irradiation; type: physicochemical; details: for photostability of the filter: formulation on PMMA plate, photostable if residual % >= 80
Experimental: The method adopted to determine the photostability has been previously reported. Each plate was prepared as mentioned above and subjected to a solar irradiation quantified as the minimum UVA dose equivalent to an effective erythema radiant exposure. Transmittance of the sunscreen layer was recorded in the range of 290–400 nm before and after exposure to sunlight.
Equations (3) and (4) made it possible to derive the residual percentage of SPF in vitro (% SPFeff.) and UVA-PF (% UVA-PFeff.), respectively, which, if greater than or equal to 80, can categorize a filter as photostable. %SPFeff. = in vitro SPFafter/in vitro SPFbefore × 100(3) %UVA − PFeff. = UVA − PFafter/UVA − PFbefore × 100.(4)
Photostability is a crucial feature to delineate the efficacy and safety profile of a solar formulation. According to the criteria developed by Garoli et al., photodegradation was measured by recording the pre- and post-irradiation transmittance of PMMA plates with finger-coated formulations, applying the dose of UVA necessary to cause erythema.
The residual efficacy after exposure (%) indicates the loss of sun protection after sun exposure. Equations (3) and (4) made it possible to derive the residual percentage of SPF in vitro (% SPFeff.) and UVA-PF (% UVA-PFeff.), respectively, which, if greater than or equal to 80, make a filter to be categorized as photostable, according to regulation. It can be deduced from the data obtained that compounds 8a and 10a were photostable (Figure 2). […] Compound 9a containing furan in position 2 was photo-unstable with SPF and PF-UVA below 80%, and this could be attributable to photo-instability of its conjugated species. The order of photostability that emerged for the benzothiazole derivatives is: thiophene derivatives> pyrrole derivatives> furan derivatives.

[2] = Filtering parameters (in vitro SPF, UVAPF, UVA/UVB, critical wavelength) of W/O formulations on PMMA plates; type: physicochemical
Experimental: The synthesized derivatives were incorporated at increasing concentrations (1%, 2% and 3%) in a topical W/O cosmetic standard formulation, to evaluate the filtering parameters, having the following ingredients composition.
INCI (International Nomenclature Cosmetic Ingredients): aqua, glycerin, Euxyl PE 9010, xanthan gum, ceteareth-12, ceteareth-20, sterearic acid, butylhydroxytoluene, myritol, PEG-7 glyceryl cocoate and 10% sodium solution.
Briefly, the protocol is to finger spread 32.5 mg of each formulation onto 25 cm2 PMMA plates. Each formulation was tested in triplicate by recording five measurements for each dish, after incubation in the dark for 15–30 min at room temperature. UV transmittance data were recorded in the range 290–400 nm using a UV-VIS spectrophotometer.
Blank plate, SPF, UVA-PF and Critical Wavelength were achieved through SPF Calculator Software (version 2.1), Shimadzu, Milan, Italy) as previously reported.
For the determination of the SPF in vitro of the samples in formulation it was decided to use an internal method, developed by us previously and based on the adaptation of the ISO 24443: 2012 [38]. The transmittance spectrum, processed with a specific software (SPF Calculator), made it possible to obtain the SPF, UVAPF, critical lambda and UVA/UVB ratio values of the formulations containing the selected active ingredients (Table 1).

In vitro DPPH test = details: for DPPH (% Inhibition): compounds at 1 mg/mL, 30 min, 517 nm
Experimental: The assay performed is adapted from Wang et al.. Briefly, 0.750 mL of 1 mg/mL solutions of the tested compounds was treated with 1.5 mL of DPPH solution in MeOH. The absorbance of samples, stored for 30 min at room temperature in the dark, was read on the spectrophotometer at 517 nm. The values obtained were converted into a radical inhibition percentage (%) by Equation (1). DPPH radical scavenging capacity (%) = [1 − A1/A0] × 100%(1) where A0 and A1 were, respectively, the absorbance without and with the sample. Subsequently, the compound with the best profile was tested in order to determine the IC50 (µg/mL). A linear regression plot is performed to calculate the actual sample concentration required to eliminate 50% of the DPPH free radicals.
The antioxidant activity of a molecule is very important and, if present, it can be synergistic with the SPF described above in reducing the damage that is ROS-induced by UV rays. For this reason, the synthesized compounds were assayed in vitro to assess their antioxidant profiles by means of the DPPH and FRAP assays (Table 2). Regarding the ability to scavenge the stable radical 2,2-diphenyl-1-picrylhydrazyl (DPPH), it was decided to investigate first the compounds synthesized at the same concentration (1 mg/mL) and evaluate the percentage of inhibition of the radical DPPH.

Microsporum gypseum = experiment: Antidermatophyte activity, plaque growth inhibition; type: cell-based, Microsporum gypseum CBS 130,948; details: Nannizzia gypsea; 100 μg/mL, SDA; read-out: % Inhibition Growth M. gypseum
Experimental: (§1) The dermatophytes used in this study were Epidermophyton floccosum var. floccosum (Netherlands) CBS 358.93 strain, Trichophyton tonsurans (Netherlands) CBS 483.76 strain, Trichophyton mentagrophytes (Netherlands) CBS 160.66 strain, Microsporum canis (Iran) CBS 131,110 strain, and Microsporum gypseum (Iran) CBS 130,948 strain. All dermatophytes were maintained at 4 °C as agar slants on SDA. Candida albicans (ATCC 10231) was maintained at 4 °C on SDA plate.
(§2) The in vitro antifungal activity against the five selected dermatophytes was evaluated, as previously described, using the plaque growth inhibition method. All compounds were evaluated at the final concentration of 100 µg/mL. The percentages of growth inhibition according to Equation (5) were calculated as the average of three different experiments. I = [(C − T)/C] × 100%,(5) where I is the percentage value of growth inhibition, C is the measure of the diameter of the control circular mycelial inoculum (mm) and T is the extended diameter of the treated mycelial inoculum (mm).
(§3) All synthesized benzothiazole derivatives were evaluated to evaluate their in vitro antifungal activity against the five pathogenic dermatophytes that cause the most common dermatomycoses: Microsporum gypseum, Microsporum canis, Trichophyton mentagrophytes, Trichophyton tonsurans and Epidermophyton floccosum. All compounds were tested at a concentration of 100 µg/mL in DMSO, to evaluate the ability to inhibit the growth of dermatophyte cultures in Sabouraud Dextrose Agar (SDA). Briefly, room temperature incubation was performed and dermatophyte inhibition assessed by measuring the colony diameter at each disc for 7 days. The results are shown in Table 3 and were determined as the average of three different experiments.

Epidermophyton floccosum = experiment: as above; type: cell-based, Epidermophyton floccosum var. floccosum CBS 358.93; details: 100 μg/mL, SDA, read-out: % Inhibition Growth E. floccosum
Experimental: as §1, §2, §3

Compound | photostability of the filter [1] | SPF ([2]; 1% in W/O formulation) | UVA/UVB ([2]; 1% in W/O formulation) | UVAPF ([2]; 1% in W/O formulation) | λc ([2]; 1% in W/O formulation) [nm] | SPF ([2]; 2% in W/O formulation) | UVA/UVB ([2]; 2% in W/O formulation) | UVAPF ([2]; 2% in W/O formulation) | λc ([2]; 2% in W/O formulation) [nm] | SPF ([2]; 3% in W/O formulation) | UVA/UVB ([2]; 3% in W/O formulation) | UVAPF ([2]; 3% in W/O formulation) | λc ([2]; 3% in W/O formulation) [nm] | UVA protection profile ([2]; UVA-PF at least 1/3 of SPF to be efficient) | DPPH (% Inhibition) (In vitro DPPH test) [%] | inhibition at 100 µg/mL (Microsporum gypseum) [%] | inhibition at 100 µg/mL (Epidermophyton floccosum) [%] | residual percentage of SPF in vitro (% SPFeff.) ([1]; after irradiation) | residual percentage of UVA-PF (% UVA-PFeff.) ([1]; after irradiation) | DPPH IC50 (In vitro DPPH test) [µg/mL]
c1c[nH]c(-c2nc3ccccc3s2)c1 [Compound 8a, 2-(1H-Pyrrol-2-Yl)benzothiazole] | photostable | 4.19 | 1.17 | 2.17 | 354 | 7.16 | 0.92 | 2.46 | 353 | 13.05 | 0.66 | 2.88 | 354 | good UVA protection profile | 29.17 ± 1.05 | 50 ± 1.34 | 26 ± 0.66 |  |  | 
c1coc(-c2nc3ccccc3s2)c1 [Compound 9a, 2-(Furan-2-Yl)benzothiazole] | photo-unstable | 6.42 | 0.34 | 1.26 | 337 | 14.18 | 0.18 | 1.60 | 341 | 20.23 | 0.13 | 1.50 | 343 |  | 24.69 ± 0.14 | 74.78 ± 0.59 | 68.85 ± 0.54 | below 80% | below 80% | 
c1csc(-c2nc3ccccc3s2)c1 [Compound 10a, 2-(Thiophen-2-Yl)benzothiazole] | photostable | 4.86 | 0.69 | 1.60 | 347 | 5.14 | 0.62 | 1.60 | 347 | 10.73 | 0.45 | 2.02 | 349 |  | 85.00 ± 0.88 | 70.4 ± 0.77 | 54.1 ± 0.75 |  |  | 
NS(=O)(=O)c1ccc2nc(-c3cccs3)sc2c1 [Compound 10c, 2-(Thiophen-2-Yl)benzothiazole-6-Sulfonamide] |  |  |  |  |  |  |  |  |  |  |  |  |  |  | 21.82 ± 0.06 | 12.36 ± 0.05 | 10.7 ± 0.31 |  |  | 
c1c[nH]c(-c2nc3ccccc3[nH]2)c1 [Lead 10, reference compound] |  | 2.44 | 0.70 | 1.16 | 341 | 2.72 | 0.73 | 1.32 | 357 | 3.06 | 0.75 | 1.54 | 364 |  | 70.00 ± 3.25 | 99.1 ± 1.33 | 102 ± 4.92 |  |  | 64 ± 3
